Where two headings read alike, the source gives them in different places.
Tests used:
Zymoseptoria tritici = assay: Leaf blotch of wheat (SEPTTR) disease control on wheat seedlings; assay type: in vivo, Zymoseptoria tritici on wheat plants (variety Yuma); conditions: LV activity at 121.5 g/H
Method: (§1) Technical grades of materials were dissolved in acetone, which were then mixed with nine volumes of water (H2O) containing 110 ppm Triton X-100. The fungicide solutions were applied onto wheat seedlings using an automated booth sprayer to run-off. All sprayed plants were allowed to air dry prior to further handling. All fungicides were evaluated using the aforementioned method for their activity vs. all target diseases, unless stated otherwise. Wheat leaf blotch and brown rust activity were also evaluated using track spray applications, in which case the fungicides were formulated as EC formulations, containing 0.1% Trycol 5941 in the spray solutions. Wheat plants (variety Yuma) were grown from seed in a greenhouse in 50% mineral soil/50% soil-less Metro mix until the first leaf was fully emerged, with 7-10 seedlings per pot. These plants were inoculated with an aqueous spore suspension of Zymoseptoria tritici either prior to or after fungicide treatments. […] When disease symptoms were fully expressed on the 1st leaves of untreated plants, infection levels were assessed on a scale of 0 to 100 percent disease severity. Percent disease control was calculated using the ratio of disease severity on treated plants relative to untreated plants.

Puccinia triticina = assay: Wheat brown rust (PUCCRT) disease control on wheat seedlings; assay type: in vivo, Puccinia triticina on wheat plants (variety Yuma); conditions: LV activity at 121.5 g/H
Method: as §1, with “plants. […]” for “plants.”

For CCc1cc(OC)ccc1C(c1ccc(OC)cc1OC)[C@H](C)OC(=O)[C@H](C)n1c(=O)oc2c(OC)ccnc2c1=O (stereo partly shown) [Compound 8], the pest or weed control at 121.5 g/ha (Zymoseptoria tritici; 24 h, 1 Day Protectant, read-out: SEPTTR 1DP disease control rating) was > 80%, the pest or weed control at 121.5 g/ha (Zymoseptoria tritici; 72 h, 3 Day Curative, read-out: SEPTTR 3DC disease control rating) was > 80% and the pest or weed control at 121.5 g/ha (Puccinia triticina; 24 h, 1 Day Protectant, read-out: PUCCRT 1DP disease control rating) was ≤ 80%. For the same molecule, the pest or weed control at 121.5 g/ha (Puccinia triticina; 72 h, 3 Day Curative, read-out: PUCCRT 3DC disease control rating) was ≤ 80%.
